This is an account of results in patent US20070160691A1, “Pharmaceutical composition for treating and preventing cancer comprising cinnamoni cortex extract and zizyphi fructus extract” (KOREA RESEARCH INSTITUTE OF BIOSCIENCE AND BIOTECH, priority 2003, published 2007).

What is called inhibition is how much of the control response was suppressed. Read a low inhibition as a response near the control.

The subject of experiment [1] is MDA-MB-231 breast cancer cells. In words: DNA fragmentation (apoptosis induction), agarose gel electrophoresis. It is filed as cell-based. The conditions noted are these: MDA-MB-231 cells, 10 μM and 30 μM HCA, 48 hrs, compared to DMSO; FIG. 1. How it is done:
(§1) MDA-MB-231 breast cancer cells and SW620 colon cancer cells were seeded onto 100-mm culture dishes at densities of 1×10^6 and 2×10^6 cells, respectively. After 18 hrs, the cells were treated with 10 μM and 30 μM of 2′-hydroxycinnamaldehyde(HCA) and further cultured for 48 hrs.
(§2) Then, to analyze DNA cleavage by the HCA treatment, the cells were lysed using RIPA buffer (50 mM Tris-HCl, pH 7.4, 150 mM NaCl, 5 mM EDTA, 1% NP-40, 1 mM sodium vanadate, 0.5% sodium deoxycholate, and 0.05% sodium deoxysulfate). The cell lysates were centrifuged at 13,000 rpm. The supernatants were subjected to phenol extraction to remove proteins, and the nucleic acid layers were recovered. Potassium acetate was added to each nucleic acid layer in a final concentration of 50 mM, and an equal volume of isopropyl alcohol was added thereto to precipitate nucleic acids. The precipitated nucleic acids were washed with 80% ethanol and dried. The dried nucleic acids were dissolved in 30 μl of TE buffer, and treated with Dnase-free RNase at 37° C. for 1 hr to remove RNA.
(§3) The resulting DNA samples were electrophoresed on a 1.5% agarose gel to investigate DNA fragmentation by HCA.

In the next experiment the test system is SW620 colon cancer cells. The experiment is described as above. It is filed as cell-based, human. The following applies: 10 μM and 30 μM HCA, 48 hrs, compared to DMSO, FIG. 1. How it is done: as §1, §2, §3
Experiment [2] concerns PARP (poly(ADP-ribose) polymerase) in MDA-MB-231 breast cancer cells. In words: PARP cleavage by Western blotting. In kind it is cell-based. The following applies: MDA-MB-231 cells, 10 μM and 30 μM HCA, 48 hrs, compared to DMSO; FIG. 2. On the procedure:
(§4) MDA-MB-231 breast cancer cells and SW620 colon cancer cells were seeded onto 100-mm culture dishes at densities of 1×10^6 and 2×10^6 cells, respectively. After 18 hrs, the cells were treated with 10 μM and 30 μM of HCA and further cultured for 48 hrs.
(§5) Then, to analyze PARP (poly(ADP-ribose) polymerase) cleavage by the HCA treatment, the cells were lysed using RIPA buffer (50 mM Tris-HCl, pH 7.4, 150 mM NaCl, 5 mM EDTA, 1% NP-40, 1 mM sodium vanadate, 0.5% sodium deoxycholate, and 0.05% sodium deoxysulfate). The cell lysates were centrifuged at 13,000 rpm and the supernatants were recovered. In the supernatants, protein concentrations were determined using a Bradford reagent (Bio-Rad Protein Assay, USA). Protein samples of 30 μg were separated on a 7.5% SDS-PAGE (SDS-polyacrylamide gel electrophoresis) gel. Proteins were then electro-transferred onto a PVDF membrane. The blot was blocked using 5% skim milk in TBST (50 mM Tris-HCl, pH 7.6, 150 mM NaCl, 0.1% Tween 20). Intracellular PARP was detected using a PARP-specific antibody (Cell signaling Technology, USA), a HRP (horse radish peroxidase)-conjugated secondary antibody, and a chemiluminescence POD reagent (Roche, Germany).
A general note: A western blot detects proteins with antibodies after separation by electrophoresis.

Experiment [3] concerns PARP (poly(ADP-ribose) polymerase) in SW620 colon cancer cells. The experiment in a line: PARP cleavage by Western blotting. The conditions noted are these: 10 μM and 30 μM HCA, 48 hrs, compared to DMSO, FIG. 2. It is filed as cell-based, human. How it is done: as §4, §5
The test system of experiment [4] is MDA-MB-231 breast cancer cells. In words: Cancer cell migration assay in Boyden chamber. It is filed as cell-based. The conditions noted are these: 6 hrs, FIG. 3. On the procedure:
Cultured MDA-MB-231 breast cancer cells were detached from culture dishes using a trypsin/EDTA solution (Gifco, USA), neutralized with trypsin inhibitor (0.5 mg/ml, Sigma, USA), and washed twice with culture medium. The cells were then counted using a hematocytometer. Cell migration was assayed using a Boyden chamber. HCA was added to a lower compartment of the Boyden chamber through holes with concentrations of 0 μM, 1 μM, 5 μM and 10 μM. After the lower compartment of the Boyden chamber was covered with a polycarbonate membrane (8 μm pore, Neuro Probe, Inc, USA), an upper compartment of the Boyden chamber was assembled with the lower compartment, and […] MDA-MB-231 cells were inoculated in the upper compartment through holes. After the Boyden chamber was incubated in an incubator for 6 hrs, the membrane was immersed in methanol to fix the cells. Then, the membrane was air-dried, stained with a 10% Girkmsa staining solution (Sigma, USA)for 1 hr, and destained with water for 10 sec. Herein, after non-migratedcells (an upper side of the membrane) were removed using a swab, migrated cells (a lower side of the membrane) were counted under a microscope.

A value given as a limit tells only on which side of the number the result lay.

Consider `O=C/C=C/c1ccccc1O` [HCA, 2′-hydroxycinnamaldehyde], for which the “DNA fragmentation by HCA” value (in experiment [1]; with SW620 colon cancer cells) was “fragmentation of chromosonal DNA into uniform DNA fragments” throughout. For the same molecule, the PARP cleavage entry is “a decrease in normal full-length PARP (116 kDa) and an increase in cleaved PARP (89 kDa)” in experiment [2]; “a decrease in normal full-length PARP (116 kDa) and an increase in cleaved PARP (89 kDa)” in experiment [3]. For the same molecule, in experiment [4] (Homo sapiens, MDA-MB-231, at 30 μM), the inhibition at 30 µM is greater than 50%. The “inhibition of cell migration” value in experiment [4] (at 5 μM) is “inhibited cell migration”.
